# Positions count from the first letter of the chain named. Like-named read-outs stand apart in the source and are kept apart here.
# Key:
# adenosine deaminase = conditions: ref Ingolia et al., 1985; cited from earlier work
# A1-receptor-Y^288A [1] = assay type: cell-based, human; conditions: for receptor upregulation with only one of the inhibitors (immunoblot): sole inhibitor, 2 μM EHNA or 10 μM dipyridamole; for role of blockage of adenosine efflux in receptor upregulation: added to EHNA and 5-iodotubercidin
# A1 receptor = molecular target: T1, A1 receptor (Homo sapiens, UniProt P30542); test: Binding of the inhibitors to the A1 receptor; conditions: nanomolar to micromolar range
# T1 sequence (P30542 1-326): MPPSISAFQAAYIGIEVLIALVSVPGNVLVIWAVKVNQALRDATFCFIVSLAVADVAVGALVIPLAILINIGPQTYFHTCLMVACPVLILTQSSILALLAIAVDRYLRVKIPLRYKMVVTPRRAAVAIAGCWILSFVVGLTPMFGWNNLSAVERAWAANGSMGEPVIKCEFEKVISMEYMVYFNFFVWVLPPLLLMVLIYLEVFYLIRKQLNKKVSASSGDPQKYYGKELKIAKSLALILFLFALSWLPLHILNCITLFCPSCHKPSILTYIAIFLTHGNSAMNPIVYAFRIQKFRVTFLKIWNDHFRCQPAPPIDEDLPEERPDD
# A1-receptor-Y^288A [2] = test: Confocal microscopy of YFP-tagged A1-receptor-Y288A distribution; assay type: cell-based, human; conditions: 1 μM DPCPX or combination of inhibitors
# wild-type A1 receptor = molecular target: T2, wild-type A1 receptor (Homo sapiens, UniProt P30542); assay type: binding; conditions: SF-TAP-tagged receptor
# T2 sequence (P30542 1-326): T1 sequence (P30542 1-326)
# A1-receptor-Y^288A [3] = assay type: cell-based, human; conditions: SF-TAP-tagged receptor, 24 hours treatment, 15 nM [3H]DPCPX
# A1-receptor-Y^288A [4] = molecular target: T3, A1-receptor-Y^288A (Homo sapiens, UniProt P30542, Y288A); assay type: binding; conditions: membranes of untreated cells
# T3 sequence (P30542 1-326 Y288A): T1 sequence (P30542 1-326) with Y288A
# A1-receptor-Y^288A [5] = assay type: cell-based, human; conditions: 24 hours; 1 μM DPCPX or inhibitor combination
# human ENT2 = conditions: read-out: affinity; ref Ward et al., 2000; cited from earlier work
# human ENT1 = conditions: read-out: affinity; ref Ward et al., 2000; cited from earlier work
# [6] = 24 hours, 0.5 μM iodotubercidin
smiles,measurement,setting,value
"CCCCCC[C@@H]([C@@H](C)O)n1cnc2c(N)ncnc21 (racemic) [EHNA, Erythro-9-(2-hydroxy-3-nonyl)adenine]",Ki,adenosine deaminase,33 nM
same,receptor upregulation with only one of the inhibitors (immunoblot),A1-receptor-Y^288A [1]; [6],not present
same,binding to the A1 receptor,A1 receptor,"neither EHNA nor 5-iodotubercidin nor dipyridamole per se, nor their combination, used in the experiments bound to the A1 receptor"
"CCCn1c(=O)c2[nH]c(C3CCCC3)nc2n(CCC)c1=O [DPCPX, 8-cyclopentyl-1,3-dipropylxanthine]",distribution of receptor fluorescence (confocal),A1-receptor-Y^288A [2],the fluorescence was visualized on the cell surface
same,Bmax,"wild-type A1 receptor; hypoxic cells (5% O2, 24 hours)",15.0 ± 0.8 pmol/mg
same,Bmax,wild-type A1 receptor; normoxic cells,12.2 ± 0.3 pmol/mg
same,binding of [3H]DPCPX by the receptors accumulated after treatment,A1-receptor-Y^288A [3],did bind the radioligand
same,Bmax,A1-receptor-Y^288A [4],486.3 ± 80.0 fmol/mg
same,fate of receptor after cycloheximide block (mature glycosylated forms),"A1-receptor-Y^288A [1]; 4 hours preincubation, then cycloheximide 50 μg/ml for 2 or 4 hours",concomitant increase in the mature glycosylated forms of the receptor
same,level of receptor protein (immunoblot),"A1-receptor-Y^288A [1]; HEK293 stably expressing A1-receptor-Y288A-YFP, 24 hours, 1 μM DPCPX, 2 μM EHNA, 0.5 μM iodotubercidin, 10 μM dipyridamole",elevated levels of the receptor protein
same,time of maximum chaperoning effect,"A1-receptor-Y^288A [1]; incubation 1, 2, 4, 8 or 24 hours",24 h
same,YFP fluorescence (flow cytometry),A1-receptor-Y^288A [5],substantial accumulation of YFP fluorescence
"O=[N+]([O-])c1ccc(CSc2ncnc3c2ncn3[C@@H]2O[C@H](CO)[C@@H](O)[C@H]2O)cc1 [NBMPR, S-(4-nitrobenzyl)-6-thioinosine]",role of blockage of adenosine efflux in receptor upregulation,A1-receptor-Y^288A [1]; 24 hours,indispensable for receptor upregulation
OCCN(CCO)c1nc(N2CCCCC2)c2nc(N(CCO)CCO)nc(N3CCCCC3)c2n1 [dipyridamole],Ki,human ENT2,~350 nM
same,role of blockage of adenosine efflux in receptor upregulation,A1-receptor-Y^288A [1]; 24 hours,indispensable for receptor upregulation
same,receptor upregulation with only one of the inhibitors (immunoblot),A1-receptor-Y^288A [1]; [6],not present
same,Ki,human ENT1,~5 nM
same,binding to the A1 receptor,A1 receptor,"neither EHNA nor 5-iodotubercidin nor dipyridamole per se, nor their combination, used in the experiments bound to the A1 receptor"
Nc1ncnc2c1c(I)cn2[C@@H]1O[C@H](CO)[C@@H](O)[C@H]1O [5-iodotubercidin],receptor upregulation with only one of the inhibitors (immunoblot),A1-receptor-Y^288A [1]; [6],not present
same,binding to the A1 receptor,A1 receptor,"neither EHNA nor 5-iodotubercidin nor dipyridamole per se, nor their combination, used in the experiments bound to the A1 receptor"
O=C1N[C@@H]2[C@@H](O)[C@@H](O)[C@H](O)[C@@H](CO)N2C1=O [kifunensine],binding of [3H]DPCPX by the receptors accumulated after treatment,A1-receptor-Y^288A [3],failed to bind the antagonist radioligand [^3H]DPCPX
